Each structure is given as a SMILES string. A value given as a limit tells only on which side of the number the result lay.

15 compounds from US20250304551A1 (SHANGHAI APEIRON THERAPEUTICS COMPANY LIMITED, priority 2022, published 2025) can be followed below.

Assay [1] concerns the target T1, Human KIF18A (amino acid sequence 1-417) (Homo sapiens, UniProt Q8NI77).
T1 construct: purchased Viva Biotech (Shanghai) Ltd
As to the kind of experiment: Enzyme activity detection experiment (ADP-Glo, KIF18A with tubulin and ATP). It is filed as biochemical. The note with it: tubulin 60 μg/mL, ATP 25 μM, KIF18A protein 2.5 nM, 120 minutes at ambient temperature, ADP-Glo chemiluminescence. A digest of the protocol: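 KIF18A (2.5 nM) was incubated with tubulin (60 μg/mL as added), ATP (25 μM) and serially diluted compound for 120 min at ambient temperature. ADP formed was detected by ADP-Glo: reagent for 30 min, then detection reagent for 30 min in the dark, with chemiluminescence read-out.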

In assay [2] the test system is OVCAR3 cells. Nature of the assay: Cell proliferation activity test, OVCAR3 (CyQUANT Direct). The note with it: Homo sapiens, OVCAR-3, 72 h, 3 days incubation, CyQUANT fluorescence detection, read-out: OVCAR-3 Cell Viability_IC50_nM. It is filed as cell-based. Put shortly:
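OVCAR3 cells seeded overnight, then exposed to compounds at 0-10 μM final (0.20% DMSO) for 3 days at 37° C. Cell number read by CyQUANT Direct fluorescence after 60 min at 37° C.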

Assay [3] has as its system HT29 cells. As to the kind of experiment: CyQuant cell proliferation activity test, HT29. Type of assay: cell-based. The note with it: Homo sapiens, HT-29, 72 h, HT29 2000 cells per well, 3 days incubation, initial concentration 3000 nM, IC50 by XLFIT, read-out: HT-29 Cell Viability_IC50_nM. A digest of the protocol: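 HT29 cells (2000/well, RPMI-1640 with 10% FBS) were plated overnight, then exposed to compound for 3 days at 37 °C, 5% CO2. Dosing was 9 concentrations, 3-fold dilutions from 3000 nM, in 0.20% DMSO. Proliferation was read with CyQuant reagent after 1 h, and IC50 derived from the curves.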

T1 sequence (Q8NI77 1-417): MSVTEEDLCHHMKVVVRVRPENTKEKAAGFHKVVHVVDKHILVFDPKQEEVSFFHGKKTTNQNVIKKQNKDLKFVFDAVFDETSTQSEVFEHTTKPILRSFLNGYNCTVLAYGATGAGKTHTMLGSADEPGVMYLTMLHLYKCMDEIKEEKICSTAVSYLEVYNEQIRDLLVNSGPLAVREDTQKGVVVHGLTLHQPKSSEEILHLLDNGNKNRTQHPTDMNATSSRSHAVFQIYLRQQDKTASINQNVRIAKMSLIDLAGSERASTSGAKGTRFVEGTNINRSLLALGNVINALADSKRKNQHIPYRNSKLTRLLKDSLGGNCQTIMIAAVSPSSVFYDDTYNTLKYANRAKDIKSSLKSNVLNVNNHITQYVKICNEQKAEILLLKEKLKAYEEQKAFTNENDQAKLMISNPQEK
T1 sequence (Q2XVP4 whole entry partner): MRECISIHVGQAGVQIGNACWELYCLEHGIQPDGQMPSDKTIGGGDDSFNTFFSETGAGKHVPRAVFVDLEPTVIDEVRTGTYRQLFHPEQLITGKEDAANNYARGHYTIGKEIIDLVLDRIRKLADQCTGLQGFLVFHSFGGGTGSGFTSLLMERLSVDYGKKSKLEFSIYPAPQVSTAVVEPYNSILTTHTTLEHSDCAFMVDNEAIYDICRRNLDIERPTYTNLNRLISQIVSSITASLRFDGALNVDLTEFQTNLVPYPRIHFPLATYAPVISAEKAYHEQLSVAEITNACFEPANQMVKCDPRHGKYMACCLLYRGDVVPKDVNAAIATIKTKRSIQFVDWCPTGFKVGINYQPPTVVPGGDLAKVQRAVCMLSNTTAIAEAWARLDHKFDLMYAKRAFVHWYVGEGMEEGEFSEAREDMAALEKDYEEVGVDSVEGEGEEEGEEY
T1 sequence (P02554 whole entry partner): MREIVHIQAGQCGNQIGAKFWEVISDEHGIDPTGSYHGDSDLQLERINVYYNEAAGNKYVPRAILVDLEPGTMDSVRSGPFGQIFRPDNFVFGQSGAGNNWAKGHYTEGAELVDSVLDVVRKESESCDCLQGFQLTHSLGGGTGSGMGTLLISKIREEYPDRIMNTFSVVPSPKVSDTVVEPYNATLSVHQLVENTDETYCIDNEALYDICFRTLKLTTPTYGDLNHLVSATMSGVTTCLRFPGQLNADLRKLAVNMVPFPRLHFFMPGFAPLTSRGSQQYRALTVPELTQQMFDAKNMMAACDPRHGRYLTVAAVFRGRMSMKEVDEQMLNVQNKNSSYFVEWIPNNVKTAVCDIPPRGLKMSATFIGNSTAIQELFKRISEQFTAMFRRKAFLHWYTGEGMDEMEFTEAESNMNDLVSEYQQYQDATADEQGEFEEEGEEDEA

Regarding `Cc1cc(-c2cn(-c3cnc(NS(=O)(=O)CCO)cc3N3CCC4(CC3)CC4)nn2)cc(N2CCC(F)(F)CC2)n1` [Example 68, N-(4-{6-azaspiro[2.5]octan-6-yl}-5-{4-[2-(4,4-difluoropiperidin-1-yl)-6-methylpyridin-4-yl]-1H-1,2,3-triazol-1-yl}pyridin-2-yl)-2-hydroxyethane-1-sulfonamide], the IC50 in assay [1] worked out at 112 nM; in assay [2], 159 nM; in assay [3] it was 250 nM.

On to `Cc1cc(-c2nnn(-c3ccc(NS(=O)(=O)CCO)cc3N3CCC4(CC3)CC4)c2C)nc(N2CCC(F)(F)CC2)n1` [Example 69, N-(3-{6-azaspiro[2.5]octan-6-yl}-4-{4-[2-(4,4-difluoropiperidin-1-yl)-6-methylpyrimidin-4-yl]-5-methyl-1H-1,2,3-triazol-1-yl}phenyl)-2-hydroxyethane-1-sulfonamide], for which the IC50 in assay [1] is more than 3000 nM; in assay [2], 1500 nM; in assay [3], more than 3000 nM.

For `CC(C)(O)c1ccc(-c2cn(-c3ccc(NS(=O)(=O)CCO)cc3N3CCC4(CC3)CC4)nn2)nc1N1CCC(F)(F)CC1` [Example 70, N-(4-(4-(6-(4,4-difluoropiperidin-1-yl)-5-(2-hydroxypropan-2-yl)pyridin-2-yl)-1H-1,2,3-triazol-1-yl)-3-(6-azaspiro[2.5]octan-6-yl)phenyl)-2-hydroxyethanesulfonamide], the IC50 came to 1230 nM in assay [1], 582 nM in assay [2] and 700 nM in assay [3].

For the compound `CC(C)(O)c1cc(-c2cn(-c3ccc(NS(=O)(=O)CCO)cc3N3CCC4(CC3)CC4)nn2)nc(N2CCC(F)(F)CC2)n1` [Example 71, N-(4-(4-(2-(4,4-difluoropiperidin-1-yl)-6-(2-hydroxypropan-2-yl)pyrimidin-4-yl)-1H-1,2,3-triazol-1-yl)-3-(6-azaspiro[2.5]octan-6-yl)phenyl)-2-hydroxyethanesulfonamide], the IC50 in assay [1] amounted to 165 nM; in assay [2] it was 94 nM; in assay [3], 131 nM.

As for `O=S(=O)(CCO)Nc1ccc(-n2cc(-c3cc(N4CCC(F)(F)CC4)c4ncccc4c3)nn2)c(N2CCC3(CC2)CC3)c1` [Example 72, N-(4-(4-(8-(4,4-difluoropiperidin-1-yl)quinolin-6-yl)-1H-1,2,3-triazol-1-yl)-3-(6-azaspiro[2.5]octan-6-yl)phenyl)-2-hydroxyethane-1-sulfonamide], the figures for the IC50 in assay [1], in assay [2] and in assay [3] were 190 nM, 20 nM and 25 nM, respectively.

Turning to `O=S(=O)(CCO)Nc1ccc(-n2cc(-c3cc4cccnc4c(N4CCC(F)(F)CC4)c3F)nn2)c(N2CCC3(CC2)CC3)c1` [Example 73, N-(3-{6-azaspiro[2.5]octan-6-yl}-4-{4-[8-(4,4-difluoropiperidin-1-yl)-7-fluoroquinolin-6-yl]-1H-1,2,3-triazol-1-yl}phenyl)-2-hydroxyethane-1-sulfonamide], the IC50 was determined as 271 nM in assay [1], 34 nM in assay [2] and 63 nM in assay [3].

For `Cc1ccc2cc(-c3cn(-c4ccc(NS(=O)(=O)CCO)cc4N4CCC5(CC4)CC5)nn3)cc(N3CCC(F)(F)CC3)c2n1` [Example 74, N-(3-{6-azaspiro[2.5]octan-6-yl}-4-{4-[8-(4,4-difluoropiperidin-1-yl)-2-methylquinolin-6-yl]-1H-1,2,3-triazol-1-yl}phenyl)-2-hydroxyethane-1-sulfonamide], the IC50 in assay [1] was 807 nM; in assay [2], 119 nM; in assay [3] it was 127 nM.

Regarding `O=S(=O)(CCO)Nc1ccc(-n2cc(-c3cc(N4CCC(F)(F)CC4)c4nnccc4c3)nn2)c(N2CCC3(CC2)CC3)c1` [Example 76, N-(4-(4-(8-(4,4-difluoropiperidin-1-yl)cinnolin-6-yl)-1H-1,2,3-triazol-1-yl)-3-(6-azaspiro[2.5]octan-6-yl)phenyl)-2-hydroxyethane-1-sulfonamide], the IC50 in assay [1] was 75 nM; in assay [2], 12 nM; in assay [3], 16 nM.

Regarding `Nc1cc2cc(-c3cn(-c4ccc(NS(=O)(=O)CCO)cc4N4CCC5(CC4)CC5)nn3)cc(N3CCC(F)(F)CC3)c2nn1` [Example 77, N-(4-(4-(3-amino-8-(4,4-difluoropiperidin-1-yl)cinnolin-6-yl)-1H-1,2,3-triazol-1-yl)-3-(6-azaspiro[2.5]octan-6-yl)phenyl)-2-hydroxyethane-1-sulfonamide], the IC50 is 64 nM in assay [1], 13 nM in assay [2] and 12 nM in assay [3].

Regarding `Cc1cc(-c2cn(-c3ccc(NS(=O)(=O)CCO)cc3N3CCC4(CC3)CC4)nn2)cc(N2CCC(F)(F)CC2)c1[N+](=O)[O-]` [Example 78, N-(3-{6-azaspiro[2.5]octan-6-yl}-4-{4-[3-(4,4-difluoropiperidin-1-yl)-5-methyl-4-nitrophenyl]-1H-1,2,3-triazol-1-yl}phenyl)-2-hydroxyethane-1-sulfonamide], the IC50 in assay [1], in assay [2] and in assay [3] was more than 3000 nM each time.

On to `Nc1ncc(-c2cn(-c3ccc(NS(=O)(=O)CCO)cc3N3CCC4(CC3)CC4)nn2)nc1N1CCC(F)(F)CC1` [Example 79, N-(4-{4-[5-amino-6-(4,4-difluoropiperidin-1-yl)pyrazin-2-yl]-1H-1,2,3-triazol-1-yl}-3-{6-azaspiro[2.5]octan-6-yl}phenyl)-2-hydroxyethane-1-sulfonamide], for which the IC50 in assay [1] was 24 nM; in assay [2] it was 11 nM; in assay [3], 7 nM.

As to `Nc1ccc2cc(-c3cn(-c4ccc(NS(=O)(=O)CCO)cc4N4CCC5(CC4)CC5)nn3)c(F)c(N3CCC(F)(F)CC3)c2n1` [Example 80, N-(4-{4-[2-amino-8-(4,4-difluoropiperidin-1-yl)-7-fluoroquinolin-6-yl]-1H-1,2,3-triazol-1-yl}-3-{6-azaspiro[2.5]octan-6-yl}phenyl)-2-hydroxyethane-1-sulfonamide], the IC50 came out at 475 nM in assay [1], 21 nM in assay [2] and 26 nM in assay [3].

Turning to `Nc1nc2c(N3CCC(F)(F)CC3)c(F)c(-c3cn(-c4ccc(NS(=O)(=O)CCO)cc4N4CCC5(CC4)CC5)nn3)cc2s1` [Example 81, N-(4-{4-[2-amino-4-(4,4-difluoropiperidin-1-yl)-5-fluoro-1,3-benzothiazol-6-yl]-1H-1,2,3-triazol-1-yl}-3-{6-azaspiro[2.5]octan-6-yl}phenyl)-2-hydroxyethane-1-sulfonamide], the figures for the IC50 in assay [1], in assay [2] and in assay [3] were 710 nM, 20 nM and 30 nM, respectively.

Take `O=S(=O)(CCO)Nc1ccc(-n2cc(-c3ccc(-c4cccnc4)c(N4CCC(F)(F)CC4)n3)nn2)c(N2CCC3(CC2)CC3)c1` [Example 82, N-(3-{6-azaspiro[2.5]octan-6-yl}-4-{4-[2-(4,4-difluoropiperidin-1-yl)-[3,3′-bipyridyl]-6-yl]-1H-1,2,3-triazol-1-yl}phenyl)-2-hydroxyethane-1-sulfonamide]: the IC50 in assay [1] amounted to 283 nM; in assay [2], 15 nM; in assay [3] it was 23 nM.

Turning to `Cc1cc(-c2cn(-c3ccc(NS(=O)(=O)[C@H](C)CO)cc3N3CCC4(CC3)CC4)nn2)nc(N2CCC(F)(F)CC2)n1` [Example 83, (2R)—N-(3-{6-azaspiro[2.5]octan-6-yl}-4-{4-[2-(4,4-difluoropiperidin-1-yl)-6-methylpyrimidin-4-yl]-1H-1,2,3-triazol-1-yl}phenyl)-1-hydroxypropane-2-sulfonamide], the IC50 in assay [1] was determined as 117 nM; in assay [2], 13 nM; in assay [3], 16 nM.
